Source: patent US10124033B2, “Peptides and methods of use” (BAXALTA INCORPORATED, priority 2014, dated 2018)
Residues, ends and D or L forms follow the SMILES beside them.

Target: T1, Protein S/APC cofactor activity (Homo sapiens, UniProt P07225)
T1 construct: host or cells: plasma
T1 sequence (P07225 41-676 limits assumed): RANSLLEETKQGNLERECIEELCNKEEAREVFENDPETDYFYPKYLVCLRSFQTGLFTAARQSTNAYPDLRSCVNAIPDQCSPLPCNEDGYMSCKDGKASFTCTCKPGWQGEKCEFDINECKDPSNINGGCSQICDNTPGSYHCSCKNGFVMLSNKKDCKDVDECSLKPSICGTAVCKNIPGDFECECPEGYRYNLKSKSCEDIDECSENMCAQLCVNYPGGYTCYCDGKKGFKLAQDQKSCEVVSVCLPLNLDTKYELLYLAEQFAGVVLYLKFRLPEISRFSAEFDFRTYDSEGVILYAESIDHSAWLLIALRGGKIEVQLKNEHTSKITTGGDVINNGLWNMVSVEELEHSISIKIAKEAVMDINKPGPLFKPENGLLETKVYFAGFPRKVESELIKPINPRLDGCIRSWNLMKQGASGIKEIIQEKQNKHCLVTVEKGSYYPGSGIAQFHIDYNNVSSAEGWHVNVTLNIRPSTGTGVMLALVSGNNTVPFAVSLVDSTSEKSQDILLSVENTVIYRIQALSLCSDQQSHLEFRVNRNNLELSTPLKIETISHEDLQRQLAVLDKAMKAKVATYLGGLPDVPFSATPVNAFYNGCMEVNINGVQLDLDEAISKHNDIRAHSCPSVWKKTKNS
Experiment: CAT assay: Protein S/APC-dependent thrombin generation in FVIII-inhibited plasma
Assay type: biochemical
Settings: Protein S-depleted plasma supplemented with APC and Protein S, FVIII-inhibited
Description: Peptides also were tested for improvement of Protein S/APC-dependent thrombin generation in hemophilic plasma using a CAT assay. Protein S enhances the anticoagulation of APC in plasma. The CAT assay quantifies the effect of Protein S on APC-mediated thrombin generation initiated via the extrinsic coagulation pathway (Nicolaes, Blood Coagul. Fibrinolysis, 8:28 (1997)). APC (35 nM) and Protein S (25 nM) was added to Protein 5-depleted plasma, and plasma samples were incubated with high titer heat inactivated anti-human FVIII plasma raised in goat (4490 BU/ml; Baxter BioScience, Vienna, Austria; 50 BU/ml final plasma concentration). Thrombin formation in plasma was followed by calibrated automated thrombography (CAT) in a Fluoroskan Ascent® reader (Thermo Labsystems, Helsinki, Finland) and quantified via the thrombin peak-height. Thrombin generation was determined at high tissue factor (TF) concentration in the absence and in the presence of APC at a concentration that reduces the peak height to ˜20%. The inhibitory effect of peptides described herein on the APC cofactor activity of Protein S (PS) in plasma was measured in FVIII-inhibited pooled normal plasma supplemented with APC. Complete (100%) Protein S/APC inhibition is the height of the thrombin peak without addition of APC. Lack of (0%) PS/APC inhibition correlates to the thrombin peak-height value with a certain amount of APC. Peptides were ranked by their normalized values in comparison to the mean of wild-type controls including SD at two defined peptide concentrations (EC50 and EC90).
Exemplary conditions for the CAT assay are as follows. Protein S-depleted plasma was supplemented with 35 nM APC and […]. Stock APC was diluted with 10 pM TF and 15 μM PL. Lyophilized peptides were dissolved in 100% DMSO to a 5 mM stock concentration and further diluted with HNABSA5-buffer+0.1% Tween80. […] In a 96 well Immulon 2HB (transparent), U-bottom (ThermoElectron) plate was mixed 80 μl plasma (+CTI+Z994-5), 10 μl peptide dilution, and 10 μl APC-TF-PL-MIX or Calibrator. Thrombin generation was initiated by dispensing 20 μL of FluCa reagent containing fluorogenic substrate and HEPES-buffered CaCl2 (100 mM) into each well. Fluorescence intensity was recorded at 37° C. using the Fluoroskan Ascent® reader (filters 390 nm excitation and 460 nm emission). The parameters of the resulting thrombin generation curves were calculated using the Thrombinoscope™ software (Thrombinoscope) and thrombin calibrator to correct for inner filter and substrate consumption effects (Hemker, Pathophysiol Haemost Thromb, 33: 415 (2003)).

`CC(=O)N[C@H](C(=O)NCC(=O)N[C@@H](Cc1c[nH]cn1)C(=O)N[C@H](C(=O)N[C@@H](CO)C(=O)N[C@@H](C)C(=O)NCC(=O)N[C@@H](Cc1c[nH]c2ccccc12)C(=O)N[C@@H](Cc1ccc(O)cc1)C(=O)N[C@@H](CC(=O)O)C(=O)N[C@@H](Cc1ccc(O)cc1)C(=O)N[C@@H](CC(N)=O)C(=O)N[C@@H](Cc1ccccc1)C(=O)N[C@@H](CC(=O)O)C(=O)N[C@@H](Cc1c[nH]cn1)C(=O)N[C@@H](Cc1ccc(O)cc1)C(=O)N[C@@H](CCCNC(=N)N)C(=O)N[C@@H](CCC(=O)O)C(=O)N[C@@H](Cc1ccccc1)C(=O)N[C@H](C(N)=O)[C@@H](C)O)C(C)C)[C@@H](C)O` [JBS2512] (Ac-TGHVSAGWYDYNFDHYREFT-NH2) was tested, and the EC50 was 24 nM.

Target: T2, Protein S (Homo sapiens, UniProt P07225)
T2 sequence (P07225 41-676 limits assumed): T1 sequence (P07225 41-676 limits assumed)
Experiment: LANCE IC50 assay (competition TR-FRET) with tracer JBS0684
Assay type: binding
Settings: Table 4, multiple substitutions in JBS2572; read-out: LANCE IC50
Description: Peptides also were characterized in a competition, homogenous europium-based TR-FRET assay (LANCE IC50 assay) using JBS0684 as a tracer (i.e., competitor for Protein S binding). The following reagents were mixed together in a Perkin-Elmer ProxiPlate MTP well (indicated concentration is the final concentration): Eu-labeled Protein S (10 nM), Ulight™-labeled Streptavidin (100 nM), tracer (JBS0684 (300 nM)), and peptide (titrated in three-fold dilution steps). The final volume was 50 μl/well. The reaction mix was incubated for 1 hour at room temperature, then the fluorescence emission at 665 nm was recorded on a multi-mode reader (SpectraMax® M5, Molecular Devices) using the following instrument settings: Ex 340 nm, Em 665 nm, delay 50 μsec, integration 100 μsec, reads 100. Binding of tracer peptides to soluble europium-labeled Protein S was detected by Streptavidin labeled with an acceptor fluorophor (ULight™). Inhibition of tracer-binding to Protein S by a non-biotinylated peptide results in a decrease of TR-FRET between the Eu-labeled Protein S and ULight™-labeled Streptavidin. IC50 values were obtained from peptide titration curves at constant tracer concentration using non-linear regression of the fluorescence emission signals at 665 nm.

Point of comparison: `CC(=O)N[C@H](C(=O)NCC(=O)N[C@@H](CC(C)C)C(=O)N[C@H](C(=O)N[C@@H](CCC(=O)O)C(=O)N[C@@H](C)C(=O)NCC(=O)N[C@@H](Cc1c[nH]c2ccccc12)C(=O)N[C@@H](Cc1ccc(O)cc1)C(=O)N[C@@H](CC(=O)O)C(=O)N[C@@H](Cc1ccc(O)cc1)C(=O)N[C@@H](CC(N)=O)C(=O)N[C@@H](Cc1ccccc1)C(=O)N[C@@H](CC(=O)O)C(=O)N[C@H](C(=O)N[C@@H](Cc1ccc(O)cc1)C(=O)N[C@@H](CCCNC(=N)N)C(=O)N[C@@H](CCC(=O)O)C(=O)N[C@@H](Cc1ccccc1)C(=O)N[C@H](C(N)=O)[C@@H](C)O)C(C)C)C(C)C)[C@@H](C)O` [JBS3193] (Ac-TGLVEAGWYDYNFDVYREFT-NH2), IC50 2.5 nM. Against it:
- CC(=O)N[C@@H](Cc1ccc(O)cc1)C(=O)NCC(=O)N[C@@H](CC(C)C)C(=O)N[C@H](C(=O)N[C@@H](CO)C(=O)N[C@@H](C)C(=O)NCC(=O)N[C@@H](Cc1c[nH]c2ccccc12)C(=O)N[C@@H](Cc1ccc(O)cc1)C(=O)N[C@@H](CC(=O)O)C(=O)N[C@@H](Cc1ccc(O)cc1)C(=O)N[C@@H](CC(N)=O)C(=O)N[C@@H](Cc1ccccc1)C(=O)N[C@@H](CC(=O)O)C(=O)N[C@H](C(=O)N[C@@H](Cc1ccc(O)cc1)C(=O)N[C@@H](CCCNC(=N)N)C(=O)N[C@@H](CCC(=O)O)C(=O)N[C@@H](Cc1ccccc1)C(=O)N[C@H](C(N)=O)[C@@H](C)O)C(C)C)C(C)C [JBS3191] (Ac-YGLVSAGWYDYNFDVYREFT-NH2) — 1.6-fold lower, 1.6 nM
- CSCC[C@H](NC(=O)[C@H](Cc1ccc(O)cc1)NC(=O)[C@@H](NC(=O)[C@H](CC(=O)O)NC(=O)[C@H](Cc1ccccc1)NC(=O)[C@H](CC(N)=O)NC(=O)[C@H](Cc1ccc(O)cc1)NC(=O)[C@H](CC(=O)O)NC(=O)[C@H](Cc1ccc(O)cc1)NC(=O)[C@H](Cc1c[nH]c2ccccc12)NC(=O)CNC(=O)[C@H](C)NC(=O)[C@H](CO)NC(=O)[C@@H](NC(=O)[C@H](CC(C)C)NC(=O)CNC(=O)[C@@H](NC(C)=O)[C@@H](C)O)C(C)C)[C@@H](C)O)C(=O)N[C@@H](CCC(=O)O)C(=O)N[C@@H](Cc1ccccc1)C(=O)N[C@H](C(N)=O)[C@@H](C)O [JBS3186] (Ac-TGLVSAGWYDYNFDTYMEFT-NH2) — within 1.5-fold, 2.6 nM
- CSCC[C@H](NC(=O)[C@H](Cc1ccc(O)cc1)NC(=O)[C@H](Cc1c[nH]cn1)NC(=O)[C@H](CC(=O)O)NC(=O)[C@H](CC(N)=O)NC(=O)[C@H](CC(N)=O)NC(=O)[C@H](Cc1ccc(O)cc1)NC(=O)[C@H](CC(=O)O)NC(=O)[C@H](Cc1ccc(O)cc1)NC(=O)[C@H](Cc1c[nH]c2ccccc12)NC(=O)CNC(=O)[C@H](C)NC(=O)[C@H](CO)NC(=O)[C@@H](NC(=O)[C@H](CC(C)C)NC(=O)CNC(=O)[C@@H](NC(C)=O)[C@@H](C)O)C(C)C)C(=O)N[C@@H](CCC(=O)O)C(=O)N[C@@H](Cc1ccccc1)C(=O)N[C@H](C(N)=O)[C@@H](C)O [JBS3198] (Ac-TGLVSAGWYDYNNDHYMEFT-NH2) — the same, 2.5 nM
- CC(=O)N[C@@H](Cc1ccc(O)cc1)C(=O)NCC(=O)N[C@@H](CC(C)C)C(=O)N[C@H](C(=O)N[C@@H](CO)C(=O)N[C@@H](C)C(=O)NCC(=O)N[C@@H](Cc1c[nH]c2ccccc12)C(=O)N[C@@H](Cc1ccc(O)cc1)C(=O)N[C@@H](CC(=O)O)C(=O)N[C@@H](Cc1ccc(O)cc1)C(=O)N[C@@H](CC(N)=O)C(=O)N[C@@H](Cc1ccccc1)C(=O)N[C@@H](CC(=O)O)C(=O)N[C@H](C(=O)N[C@@H](Cc1ccc(O)cc1)C(=O)N[C@@H](CCCNC(=N)N)C(=O)N[C@@H](CCC(=O)O)C(=O)N[C@@H](Cc1ccccc1)C(=O)N[C@H](C(N)=O)[C@@H](C)O)[C@@H](C)O)C(C)C [JBS3190] (Ac-YGLVSAGWYDYNFDTYREFT-NH2) — 1.6-fold lower, 1.6 nM
- CC(=O)N[C@H](C(=O)NCC(=O)N[C@@H](CC(C)C)C(=O)N[C@H](C(=O)N[C@@H](CO)C(=O)N[C@@H](C)C(=O)NCC(=O)N[C@@H](Cc1c[nH]c2ccccc12)C(=O)N[C@@H](Cc1ccc(O)cc1)C(=O)N[C@@H](CC(=O)O)C(=O)N[C@@H](Cc1ccc(O)cc1)C(=O)N[C@@H](CC(N)=O)C(=O)N[C@@H](CC(N)=O)C(=O)N[C@@H](CC(=O)O)C(=O)N[C@H](C(=O)N[C@@H](Cc1ccc(O)cc1)C(=O)N[C@@H](CCCNC(=N)N)C(=O)N[C@@H](CCC(=O)O)C(=O)N[C@@H](Cc1ccccc1)C(=O)N[C@H](C(N)=O)[C@@H](C)O)C(C)C)C(C)C)[C@@H](C)O [JBS3195] (Ac-TGLVSAGWYDYNNDVYREFT-NH2) — within 1.5-fold, 2 nM
